Results as given in ChEMBL document CHEMBL1148419, “Novel P4 truncated tripeptidyl alpha-ketoamides as HCV protease inhibitors” (Bioorg Med Chem Lett, 2004).
Calls of active or inactive are those of the source. The calls are words filed in the database; no cut-off is given here.

Assays:
[1] = tested on: Hepatitis C virus NS3 protease (Hepatitis C virus); test: Inhibitory activity against Protease using replicon assay in rats at 50 uM concentration; Not active; conditions: Rattus norvegicus
[2] = tested on: Hepatitis C virus NS3 protease (Hepatitis C virus); test: Inhibitory activity against Protease using replicon assay in rats at 50 uM concentration; conditions: Rattus norvegicus

| inhibition [1] | inhibition [2] | SMILES |
| --- | --- | --- |
| inactive | – | CCCC(NC(=O)[C@@H]1[C@H]2CCC[C@H]2CN1C(=O)[C@@H](NC(=O)[C@H](O)C(C)C)C(C)C)C(=O)C(=O)NC1CC1 (some centres not stated) |
| – | 51% | CCCC(NC(=O)[C@@H]1[C@H]2CCC(F)(F)[C@H]2CN1C(=O)[C@@H](NC(=O)OC(C)C)C(C)(C)C)C(=O)C(=O)N[C@@H](C)c1ccccc1 (some centres not stated) |
| – | 7% | CCCC(NC(=O)[C@@H]1[C@H]2CCC[C@H]2CN1C(=O)[C@@H](NC(=O)OC(C)C)C(C)C)C(=O)C(=O)N[C@@H](C)c1ccccc1 (some centres not stated) |
| inactive | – | CCCC(NC(=O)[C@@H]1[C@H]2CCC[C@H]2CN1C(=O)[C@@H](NC(=O)OC(C)C)C(C)(C)C)C(=O)C(=O)Nc1ccccc1 (some centres not stated) |
| inactive | – | CCCC(NC(=O)[C@@H]1[C@H]2CCC[C@H]2CN1C(=O)[C@@H](NC(=O)[C@H](O)C(C)C)C(C)C)C(=O)C(=O)Nc1ccccc1 (some centres not stated) |
| – | inactive | CCCC(NC(=O)[C@@H]1[C@H]2CCC(F)(F)[C@H]2CN1C(=O)[C@@H](NC(=O)[C@H](O)C(C)C)C(C)C)C(=O)C(=O)NC1CC1 (some centres not stated) |
| – | 22% | CCCC(NC(=O)[C@@H]1[C@H]2CCC(F)(F)[C@H]2CN1C(=O)[C@@H](NC(=O)OC(C)C)C(C)C)C(=O)C(=O)N[C@@H](C)c1ccccc1 (some centres not stated) |
